{"source": "ChEMBL document CHEMBL1201862", "about": "“PubChem BioAssay data set” (2004)", "key": {"[1]": {"test": "viability loss in A549 lung cancer cells – cell-based, cherry-picks, […], cytotoxicity control, dose response (AID 1053119)", "format": "functional"}, "[2]": {"test": "toxicity to human hepatoma HepG2 cells – cell-based, cherry-picked samples, cytotoxicity control, dose response (AID 1159577)", "format": "functional"}, "[3]": {"test": "viability loss in HEK293 kidney cells – cell-based, cherry-picks, set 5, cytotoxicity control, dose response (AID 1053117)", "format": "functional"}, "[4]": {"test": "P. falciparum Dd2 growth inhibitors, dose response, SYBR Green, cherry-picked samples (AID 1159567)", "format": "functional, cell-based"}, "[5]": {"test": "viability loss in HepG2 hepatoma cells – cell-based, cherry-picks, set 5, cytotoxicity control, dose response (AID 1053118)", "format": "functional"}, "[6]": {"test": "blockers of FN fibrillogenesis by fibroblasts – AH1F cells, Alexa488-FN fluorescence, cherry-picks, dose response (AID 1035475)", "format": "functional, cell-based"}, "cells": {"test": "cells", "settings": "HEK293"}, "[7]": {"test": "liver cell line viability loss – HepG2, luminescence plate reader, powder samples, set 2, cytotoxicity control, dose response (AID 651860)", "format": "functional, cell-based"}, "[8]": {"test": "kidney cell line viability loss – HEK293T, luminescence plate reader, powder samples, set 4, cytotoxicity control, dose response (AID 651863)", "format": "functional, cell-based", "settings": "HEK293"}, "fMet-Leu-Phe receptor": {"biological_target": "fMet-Leu-Phe receptor (Homo sapiens, UniProt P21462)", "sequence (P21462 whole entry)": "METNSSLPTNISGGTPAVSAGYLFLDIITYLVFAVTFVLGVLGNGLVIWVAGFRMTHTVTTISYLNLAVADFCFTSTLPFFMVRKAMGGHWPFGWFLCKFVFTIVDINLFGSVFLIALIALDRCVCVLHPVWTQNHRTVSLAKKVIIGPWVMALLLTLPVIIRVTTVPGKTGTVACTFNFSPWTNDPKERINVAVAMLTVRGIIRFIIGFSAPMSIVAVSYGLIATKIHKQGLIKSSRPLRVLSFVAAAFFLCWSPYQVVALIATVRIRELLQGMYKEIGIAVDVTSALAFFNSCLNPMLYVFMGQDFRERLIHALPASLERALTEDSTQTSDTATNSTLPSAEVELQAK", "test": "formyl peptide receptor binders – dose response (AID 519)", "format": "functional"}, "[9]": {"test": "blockers of bursicon-stimulated LGR2 cAMP reporter – cell-based, HEK293, CRE-luciferase reporter, cherry pick, set 2, dose response (AID 743343);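 also: transfected cells were stimulated with diluted bursicon conditioned medium after compound addition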", "format": "functional"}, "[10]": {"test": "toxicity toward immortalized ovarian surface epithelium – cell-based, plate reader, dry powder samples, cytotoxicity control for PAX8 inhibitor project, dose response (AID 743045)", "format": "functional"}, "[11]": {"test": "viability loss in HEK293 cells – cell-based, plate reader, cherry-picked samples, cytotoxicity control, dose response (AID 743446)", "format": "functional"}, "[12]": {"test": "blockade of melanocortin 4 receptor signaling – cell-based, plate reader, cherry pick, counter-screen for LGR2 antagonist project, dose response (AID 743444);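 also: transfected HEK 293 cells stimulated with alpha-MSH peptide; potency of inhibitors of the alpha-MSH evoked signal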", "format": "functional"}, "[13]": {"test": "A549 cell cytotoxicity, dose response, cytotoxicity control, plate reader, cherry-pick, antagonist series (AID 743412)", "format": "functional, cell-based"}, "[14]": {"test": "OVCAR-3 cell viability loss – plate reader, dry powder samples, PAX8 inhibitor project, dose response (AID 743044)", "format": "functional, cell-based"}, "Paired box protein Pax-8": {"biological_target": "Paired box protein Pax-8 (Homo sapiens, UniProt Q06710)", "sequence (Q06710 whole entry)": "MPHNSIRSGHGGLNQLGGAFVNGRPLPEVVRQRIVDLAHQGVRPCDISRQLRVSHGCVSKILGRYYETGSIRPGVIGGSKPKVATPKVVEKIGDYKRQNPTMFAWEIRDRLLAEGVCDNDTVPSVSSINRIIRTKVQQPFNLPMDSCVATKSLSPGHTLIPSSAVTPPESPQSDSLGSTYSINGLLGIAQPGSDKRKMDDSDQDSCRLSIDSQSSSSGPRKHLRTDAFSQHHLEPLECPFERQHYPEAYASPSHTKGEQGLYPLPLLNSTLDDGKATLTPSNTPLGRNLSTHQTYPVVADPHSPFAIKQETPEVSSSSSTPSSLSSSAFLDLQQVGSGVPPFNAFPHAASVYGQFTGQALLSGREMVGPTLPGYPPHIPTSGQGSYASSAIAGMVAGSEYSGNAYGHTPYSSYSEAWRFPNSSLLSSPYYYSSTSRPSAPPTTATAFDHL", "test": "PAX8 transcriptional activity inhibition in RMG-I – RMG-I cells, luciferase, cherry-pick, dose response (AID 687027);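 also: luciferase reporter driven by Pax8 target thyroperoxidase promoter measured by SteadyGlo luminescence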", "format": "functional, cell-based"}, "[15]": {"test": "toxicity toward HepG2 liver cells – cell-based, plate reader, cherry-pick, antagonist series, cytotoxicity control, dose response (AID 743416)", "format": "functional"}, "[16]": {"test": "IGROV1 cell killing – plate reader, dry powder samples, PAX8 inhibitor project, dose response (AID 743043)", "format": "functional, cell-based", "settings": "IGROV-1"}, "[17]": {"test": "OVCAR8 cell viability loss – plate reader, dry powder samples, PAX8 project, dose response (AID 743197)", "format": "functional, cell-based", "settings": "OVCAR-8"}, "[18]": {"test": "Late stage counterscreen for inhibitors of Trypanosoma brucei methionyl tRNA synthetase (MetRS): Luminescence-based cell-based high throughput dose response assay to identify compounds that are cytotoxic to Jurkat human T lymphocyte cells.", "format": "functional"}, "[19]": {"biological_target": "T1, Methionyl-tRNA synthetase, putative (Trypanosoma brucei brucei, UniProt Q38C91)", "T1 sequence (Q38C91 whole entry)": "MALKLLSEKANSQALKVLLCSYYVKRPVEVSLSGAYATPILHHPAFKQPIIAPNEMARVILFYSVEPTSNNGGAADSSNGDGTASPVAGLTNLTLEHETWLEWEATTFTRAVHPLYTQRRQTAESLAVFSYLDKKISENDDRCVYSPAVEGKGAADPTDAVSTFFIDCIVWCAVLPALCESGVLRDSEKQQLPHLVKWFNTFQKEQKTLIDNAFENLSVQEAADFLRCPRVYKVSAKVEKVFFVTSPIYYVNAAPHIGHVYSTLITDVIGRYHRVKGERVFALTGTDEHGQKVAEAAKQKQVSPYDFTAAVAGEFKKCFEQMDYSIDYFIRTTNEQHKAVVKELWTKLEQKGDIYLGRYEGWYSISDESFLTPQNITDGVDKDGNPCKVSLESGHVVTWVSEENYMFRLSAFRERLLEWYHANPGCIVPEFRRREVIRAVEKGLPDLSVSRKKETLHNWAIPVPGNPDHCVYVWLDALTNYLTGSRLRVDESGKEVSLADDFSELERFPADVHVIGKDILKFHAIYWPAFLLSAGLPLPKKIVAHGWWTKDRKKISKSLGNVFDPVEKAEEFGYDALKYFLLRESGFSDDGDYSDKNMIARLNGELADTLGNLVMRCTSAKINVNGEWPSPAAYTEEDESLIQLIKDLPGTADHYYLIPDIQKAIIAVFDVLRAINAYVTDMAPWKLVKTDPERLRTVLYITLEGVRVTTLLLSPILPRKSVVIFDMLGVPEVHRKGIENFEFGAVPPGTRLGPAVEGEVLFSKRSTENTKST", "format": "functional, Trypanosoma brucei brucei strain 927/4 GUTat10.1"}, "[20]": {"test": "Counterscreen for inhibitors of Trypanosoma brucei methionyl tRNA synthetase (MetRS): Luminescence-based cell-based high throughput dose response assay to identify compounds that are cytotoxic to Jurkat human T lymphocyte cells.", "format": "functional"}, "[21]": {"biological_target": "T1, Methionyl-tRNA synthetase, putative", "format": "functional, Trypanosoma brucei brucei strain 927/4 GUTat10.1", "remark": "listed apart in the source"}}, "note": "The source made the active and inactive calls."}
{"smiles": "CO[C@H]1CN(C)C(=O)c2ccc(NC(=O)c3ccc(-c4ccccc4)cc3)cc2OC[C@@H](C)NC[C@@H]1C", "values": [{"measurement": "AC50", "setting": "[1]", "value": "13.4 µM (active)"}, {"measurement": "AC50", "setting": "[2]", "value": "7.74 µM (active)"}, {"measurement": "AC50", "setting": "[3]", "value": "16.3 µM (active)"}, {"measurement": "AC50", "setting": "[4]", "value": "2.02 µM (active)"}, {"measurement": "AC50", "setting": "[5]", "value": "10.9 µM (active)"}, {"measurement": "AC50", "setting": "[6]", "value": "> 70 µM (inactive)"}]}
{"smiles": "COc1ccc(CCNC(=O)CSc2cn(Cc3cccc(C)c3)c3ccccc23)cc1OC", "values": [{"measurement": "AC50", "setting": "cells", "value": "> 52 µM (inactive)"}]}
{"smiles": "Cc1ccc(S(=O)(=O)NC2=C/C(=N\\[C@@H](C)C(=O)OC(C)(C)C)C(=O)c3ccccc32)c(C)c1", "values": [{"measurement": "AC50", "setting": "[7]", "value": "43 µM (active)"}, {"measurement": "AC50", "setting": "[8]", "value": "16.3 µM (active)"}]}
{"smiles": "COc1ccc(-c2cn3cccnc3n2)cc1NC(=O)C1CCCC1", "values": [{"measurement": "Ki", "setting": "fMet-Leu-Phe receptor", "value": "> 66.7 µM (inactive)"}]}
{"smiles": "Cn1cnc(S(=O)(=O)N2C[C@@H]3N[C@H](C2)[C@@H]3c2ccc(-c3ccccc3F)cc2)c1", "values": [{"measurement": "AC50", "setting": "[9]", "value": "18.9 µM (active)"}, {"measurement": "AC50", "setting": "[10]", "value": "25.9 µM (active)"}, {"measurement": "AC50", "setting": "[11]", "value": "> 52 µM (inactive)"}, {"measurement": "AC50", "setting": "[12]", "value": "6.25 µM (active)"}, {"measurement": "AC50", "setting": "[4]", "value": "3.72 µM (active)"}, {"measurement": "AC50", "setting": "[13]", "value": "11 µM (active)"}, {"measurement": "AC50", "setting": "[14]", "value": "22 µM (active)"}, {"measurement": "AC50", "setting": "Paired box protein Pax-8", "value": "4.26 µM (active)"}, {"measurement": "AC50", "setting": "[15]", "value": "28.2 µM (active)"}, {"measurement": "AC50", "setting": "[16]", "value": "27.1 µM (active)"}, {"measurement": "AC50", "setting": "[17]", "value": "24.5 µM (active)"}]}
{"smiles": "O=C(Cn1cc(C(=O)C(=O)N2CCOCC2)c2ccccc21)Nc1cccc(C(F)(F)F)c1", "values": [{"measurement": "IC50", "setting": "[18]", "value": "> 83.3 µM (inactive)"}, {"measurement": "IC50", "setting": "[19]", "value": "0.352 µM (active)"}, {"measurement": "IC50", "setting": "[20]", "value": "77.5 µM (inactive)"}, {"measurement": "IC50", "setting": "[21]", "value": "0.205 µM (active)"}]}
